Data from ChEMBL document CHEMBL3885881, “DrugMatrix”.

Species on record: Rattus norvegicus
Assay: DrugMatrix - Regimen: Daily Repeat
Format: toxicity, organism-based, Sprague-Dawley
Set-up: regimen Daily Repeat, gender Male, age 6-8 weeks
Settings: in vivo, po, route oral GAVAGE, vehicle .5 % CMC; for BASOPHIL / EOSINOPHIL / ERYTHROCYTE COUNT / HEMATOCRIT / HEMOGLOBIN / LEUKOCYTE COUNT / LYMPHOCYTE / MEAN CORPUSCULAR HEMOGLOBIN / MEAN CORPUSCULAR HEMOGLOBIN CONCENTRATION / MEAN CORPUSCULAR VOLUME / MONOCYTE / NEUTROPHIL / PLATELET COUNT: tissue Blood; for ALANINE AMINOTRANSFERASE / ALBUMIN / ALKALINE PHOSPHATASE / ASPARTATE AMINOTRANSFERASE / BLOOD UREA NITROGEN / CHLORIDE / CHOLESTEROL / CREATINE PHOSPHOKINASE / CREATININE / GLUCOSE / PHOSPHORUS / POTASSIUM / SODIUM / TOTAL PROTEIN: tissue Plasma
[1] = 0 mg/kg, 72 h, dose level Control, time 3 day
[2] = 0 mg/kg, 120 h, dose level Control, time 5 day
[3] = 30 mg/kg, 72 h, dose level Low, time 3 day
[4] = 30 mg/kg, 120 h, dose level Low, time 5 day
[5] = 1750 mg/kg, 72 h, dose level High, time 3 day
[6] = 1750 mg/kg, 120 h, dose level High, time 5 day

In the case of `CC(=O)Oc1ccc(C(c2ccc(OC(C)=O)cc2)c2ccccn2)cc1` [BISACODYL], the BASOPHIL [1] is reported as 0%, the EOSINOPHIL [1] is reported as 0.33% and the “ERYTHROCYTE COUNT” value [1] is reported as 6.03 x10E6/uL. The HEMATOCRIT [1] was 38.8%, the HEMOGLOBIN [1] was 14.26 G/DL and the “LEUKOCYTE COUNT” value [1] was 10.64 x10E3/uL. The LYMPHOCYTE [1] was 83.33%, the “MEAN CORPUSCULAR HEMOGLOBIN” value [1] was 23.64 pg and the “MEAN CORPUSCULAR HEMOGLOBIN CONCENTRATION” value [1] was 36.74 G/DL. The “MEAN CORPUSCULAR VOLUME” value [1] was 64.32 fL, the MONOCYTE [1] was 3.33% and the NEUTROPHIL [1] was 13%. The “PLATELET COUNT” value [1] was 1264.4 x10E3/uL, the “ALANINE AMINOTRANSFERASE” value [1] was 38.83 u/L and the ALBUMIN [1] was 3.55 G/DL. For the same molecule, the “ALKALINE PHOSPHATASE” value [1] was 368.33 u/L, the “ASPARTATE AMINOTRANSFERASE” value [1] was 66.17 u/L and the “BLOOD UREA NITROGEN” value [1] was 15.67 mg/dL. For the same molecule, the CHLORIDE [1] was 104.33 MEQ/L, the CHOLESTEROL [1] was 76.5 mg/dL and the “CREATINE PHOSPHOKINASE” value [1] was 166.83 u/L. The CREATININE [1] was 0.52 mg/dL, the GLUCOSE [1] was 173.17 mg/dL and the PHOSPHORUS [1] was 11.68 mg/dL. The POTASSIUM [1] was 6.43 MEQ/L, the SODIUM [1] was 149.5 MEQ/L and the “TOTAL PROTEIN” value [1] was 5.93 G/DL. For the same molecule, the BASOPHIL [2] was 0%, the EOSINOPHIL [2] was 0% and the “ERYTHROCYTE COUNT” value [2] was 5.88 x10E6/uL. The HEMATOCRIT [2] was 37.87%, the HEMOGLOBIN [2] was 14.48 G/DL and the “LEUKOCYTE COUNT” value [2] was 12.43 x10E3/uL. The LYMPHOCYTE [2] was 84.17%, the “MEAN CORPUSCULAR HEMOGLOBIN” value [2] was 24.65 pg and the “MEAN CORPUSCULAR HEMOGLOBIN CONCENTRATION” value [2] was 38.25 G/DL. The “MEAN CORPUSCULAR VOLUME” value [2] was 64.47 fL, the MONOCYTE [2] was 4.33% and the NEUTROPHIL [2] was 11.5%. The “PLATELET COUNT” value [2] was 1182.33 x10E3/uL, the “ALANINE AMINOTRANSFERASE” value [2] was 38.67 u/L and the ALBUMIN [2] was 3.55 G/DL. The “ALKALINE PHOSPHATASE” value [2] was 342.5 u/L, the “ASPARTATE AMINOTRANSFERASE” value [2] was 63.33 u/L and the “BLOOD UREA NITROGEN” value [2] was 15.5 mg/dL. For the same molecule, the CHLORIDE [2] was 104 MEQ/L, the CHOLESTEROL [2] was 75.5 mg/dL and the “CREATINE PHOSPHOKINASE” value [2] was 142.5 u/L. The CREATININE [2] was 0.62 mg/dL, the GLUCOSE [2] was 165.17 mg/dL and the PHOSPHORUS [2] was 10.87 mg/dL. The POTASSIUM [2] was 6.85 MEQ/L, the SODIUM [2] was 150.17 MEQ/L and the “TOTAL PROTEIN” value [2] was 5.93 G/DL. The BASOPHIL [3] was 0%, the EOSINOPHIL [3] was 0% and the “ERYTHROCYTE COUNT” value [3] was 6.9 x10E6/uL. The HEMATOCRIT [3] was 44.1%, the HEMOGLOBIN [3] was 16.25 G/DL and the “LEUKOCYTE COUNT” value [3] was 9.75 x10E3/uL. The LYMPHOCYTE [3] was 83%, the “MEAN CORPUSCULAR HEMOGLOBIN” value [3] was 23.55 pg and the “MEAN CORPUSCULAR HEMOGLOBIN CONCENTRATION” value [3] was 36.85 G/DL. The “MEAN CORPUSCULAR VOLUME” value [3] was 63.85 fL, the MONOCYTE [3] was 4% and the NEUTROPHIL [3] was 13%. The “PLATELET COUNT” value [3] was 1188.5 x10E3/uL, the “ALANINE AMINOTRANSFERASE” value [3] was 37.67 u/L and the ALBUMIN [3] was 3.67 G/DL. For the same molecule, the “ALKALINE PHOSPHATASE” value [3] was 281 u/L, the “ASPARTATE AMINOTRANSFERASE” value [3] was 63 u/L and the “BLOOD UREA NITROGEN” value [3] was 17 mg/dL. The CHLORIDE [3] was 107 MEQ/L, the CHOLESTEROL [3] was 72 mg/dL and the “CREATINE PHOSPHOKINASE” value [3] was 177 u/L. It also gave a CREATININE [3] of 0.53 mg/dL, a GLUCOSE [3] of 181 mg/dL and a PHOSPHORUS [3] of 12.17 mg/dL. The POTASSIUM [3] was 7.3 MEQ/L, the SODIUM [3] was 152 MEQ/L and the “TOTAL PROTEIN” value [3] was 6.1 G/DL. The BASOPHIL [4] was 0%, the EOSINOPHIL [4] was 0.67% and the “ERYTHROCYTE COUNT” value [4] was 6.91 x10E6/uL. For the same molecule, the HEMATOCRIT [4] was 43.53%, the HEMOGLOBIN [4] was 16.47 G/DL and the “LEUKOCYTE COUNT” value [4] was 13.9 x10E3/uL. For the same molecule, the LYMPHOCYTE [4] was 85%, the “MEAN CORPUSCULAR HEMOGLOBIN” value [4] was 23.9 pg and the “MEAN CORPUSCULAR HEMOGLOBIN CONCENTRATION” value [4] was 37.97 G/DL. For the same molecule, the “MEAN CORPUSCULAR VOLUME” value [4] was 63 fL, the MONOCYTE [4] was 3.33% and the NEUTROPHIL [4] was 11%. For the same molecule, the “PLATELET COUNT” value [4] was 1208 x10E3/uL, the “ALANINE AMINOTRANSFERASE” value [4] was 36.67 u/L and the ALBUMIN [4] was 3.53 G/DL. The “ALKALINE PHOSPHATASE” value [4] was 306.33 u/L, the “ASPARTATE AMINOTRANSFERASE” value [4] was 66 u/L and the “BLOOD UREA NITROGEN” value [4] was 19 mg/dL. The CHLORIDE [4] was 106.33 MEQ/L, the CHOLESTEROL [4] was 70.33 mg/dL and the “CREATINE PHOSPHOKINASE” value [4] was 149.33 u/L. It also gave a CREATININE [4] of 0.53 mg/dL, a GLUCOSE [4] of 193.33 mg/dL and a PHOSPHORUS [4] of 12.23 mg/dL. The POTASSIUM [4] was 6.8 MEQ/L, the SODIUM [4] was 151.67 MEQ/L and the “TOTAL PROTEIN” value [4] was 5.7 G/DL. The BASOPHIL [5] was 0%, the EOSINOPHIL [5] was 0% and the “ERYTHROCYTE COUNT” value [5] was 7.45 x10E6/uL. For the same molecule, the HEMATOCRIT [5] was 45.8%, the HEMOGLOBIN [5] was 17.43 G/DL and the “LEUKOCYTE COUNT” value [5] was 12.3 x10E3/uL. For the same molecule, the LYMPHOCYTE [5] was 35.67%, the “MEAN CORPUSCULAR HEMOGLOBIN” value [5] was 23.5 pg and the “MEAN CORPUSCULAR HEMOGLOBIN CONCENTRATION” value [5] was 38.13 G/DL. The “MEAN CORPUSCULAR VOLUME” value [5] was 61.47 fL, the MONOCYTE [5] was 13.67% and the NEUTROPHIL [5] was 50.67%. The “PLATELET COUNT” value [5] was 1194 x10E3/uL, the “ALANINE AMINOTRANSFERASE” value [5] was 34 u/L and the ALBUMIN [5] was 4.3 G/DL. The “ALKALINE PHOSPHATASE” value [5] was 166 u/L, the “ASPARTATE AMINOTRANSFERASE” value [5] was 53 u/L and the “BLOOD UREA NITROGEN” value [5] was 64 mg/dL. For the same molecule, the CHLORIDE [5] was 84 MEQ/L, the CHOLESTEROL [5] was 44 mg/dL and the “CREATINE PHOSPHOKINASE” value [5] was 148 u/L. For the same molecule, the CREATININE [5] was 0.7 mg/dL, the GLUCOSE [5] was 165 mg/dL and the PHOSPHORUS [5] was 9.4 mg/dL. The POTASSIUM [5] was 8.2 MEQ/L, the SODIUM [5] was 131 MEQ/L and the “TOTAL PROTEIN” value [5] was 7.9 G/DL. For the same molecule, the BASOPHIL [6] was 0%, the EOSINOPHIL [6] was 0% and the “ERYTHROCYTE COUNT” value [6] was 7.22 x10E6/uL. For the same molecule, the HEMATOCRIT [6] was 44.95%, the HEMOGLOBIN [6] was 16.55 G/DL and the “LEUKOCYTE COUNT” value [6] was 14.05 x10E3/uL. For the same molecule, the LYMPHOCYTE [6] was 38%, the “MEAN CORPUSCULAR HEMOGLOBIN” value [6] was 22.95 pg and the “MEAN CORPUSCULAR HEMOGLOBIN CONCENTRATION” value [6] was 36.8 G/DL. For the same molecule, the “MEAN CORPUSCULAR VOLUME” value [6] was 62.3 fL, the MONOCYTE [6] was 6.5% and the NEUTROPHIL [6] was 55.5%. The “PLATELET COUNT” value [6] was 1469 x10E3/uL, the “ALANINE AMINOTRANSFERASE” value [6] was 29 u/L and the ALBUMIN [6] was 3.9 G/DL. The “ALKALINE PHOSPHATASE” value [6] was 258 u/L, the “ASPARTATE AMINOTRANSFERASE” value [6] was 36 u/L and the “BLOOD UREA NITROGEN” value [6] was 37 mg/dL. The CHLORIDE [6] was 102.5 MEQ/L, the CHOLESTEROL [6] was 71 mg/dL and the “CREATINE PHOSPHOKINASE” value [6] was 190 u/L. It also gave a CREATININE [6] of 0.7 mg/dL, a GLUCOSE [6] of 183 mg/dL and a PHOSPHORUS [6] of 12.1 mg/dL. The POTASSIUM [6] was 8 MEQ/L, the SODIUM [6] was 147.5 MEQ/L and the “TOTAL PROTEIN” value [6] was 7.6 G/DL.
